Experimental findings from patent US20070212677A1, “Identifying off-target effects and hidden phenotypes of drugs in human cells” (Odyssey Thera, Inc., priority 2004, published 2007) are described below.

“Also recorded” adds a separate entry of the source. Non-standard residues stand in square brackets, D forms with d. Residues, ends and D or L forms follow the SMILES beside them. Nle = CCCC[C@H](N)C(=O)O

The test system of assay [1] is Akt1:p27. Nature of the assay: Akt1:p27 PCA. The following applies: for Akt:p27 complexes: 90 and 480 minutes after treatment.
Description: (§4) For example, we monitored drug activity on growth factor-mediated signal transduction pathways involving protein kinase B (Akt) by assessing the complex between Akt1 and phosphatidylinositol-3-dependent kinase (Pdk1). We also monitored complexes containing Akt1 and the cyclin-dependent kinase inhibitor, p27 (CDKN1B; kip1), which reports on cell cycle regulatory processes.
In assay [2] the test system is Akt1:Pdk1. Nature of the assay: Akt1:Pdk1 PCA. The conditions noted are these: for Akt:Pdk1 complexes: 90 and 480 minutes after treatment.
Description: as §4
The test system of assay [3] is cyclinD1:Cdk4. Nature of the assay: CyclinD1:Cdk4 PCA. The assay is classed as cell-based, human. The following applies: eight hours of treatment.
Assay [4] concerns H-Ras:Raf-1. Nature of the assay: H-Ras:Raf-1 PCA. The conditions noted are these: drug treatment, HEK293. The assay is classed as cell-based, human.
In assay [5] the target is beta-Arr2:beta2AR (Homo sapiens, UniProt P07550). Briefly: beta-Arr2:beta2AR PCA (with or without ISO). Format: cell-based.
Assay [6] concerns Pin1:Jun. Briefly: Pin1:Jun PCA. Format: cell-based, human. The conditions noted are these: for effect on Pin1:Jun assay: statins, FIG. 19B.
The subject of assay [7] is phospho-Hsp27. Briefly: phospho-Hsp27 immunofluorescence, high-content imaging in HEK293 cells. The conditions noted are these: for EGF-induced Hsp27 phosphorylation: drug 90 min, hEGF during last 5 min. Format: cell-based, human. The method, then:
(§1) We assessed the effects of the above-mentioned compounds on the three pathways and used the results to construct pharmacological profiles for the agents. Human cells (HEK293) were treated with drugs and the phosphorylation status of the three downstream proteins was assessed in the absence or presence of epidermal growth factor (EGF). Cells were then fixed and probed with antisera generated against the phosphorylated forms of CREB (S133), ERK1/2 (phospho T*EY*), or phospho Hsp27 (S78/S82). The ERK1/2 antibodies specifically recognize the MAPK/ERK1 and MAPK/ERK2 protein kinases only when they are phosphorylated on Threonine 202 and Tyrosine 204 in the activation loop. […] Changes in the level and sub-cellular localization of a phosphorylated protein following treatment with a drug would indicate a functional connection between the drug and the pathway of interest.
(§2) Details of the methods used are as follows. HEK293T cells were seeded in black-walled, poly-lysine coated 96-well plates (Greiner) at a density of 30,000/well. After 24 hours, cells in duplicate wells were treated with combinations of different drugs and stimulus as follows: (a) 20 micromolar PD98059, micromolar SB203580, or vehicle alone for 90 minutes; and (b) as for (a), but with 100 ng/ml hEGF added to the cells during the last 5 min of drug treatment. The drugs were purchased from Calbiochem and hEGF was from Roche. Four sets of cells treated as described were prepared. The cells were rinsed once with PBS and fixed with 4% formaldehyde for 10 min. The cells were subsequently permeabilized with 0.25% Triton X-100 in PBS and incubated with 3% BSA for 30 min to block non-specific antibody binding. […]
(§3) Images were acquired using a Discovery-1 High Content Imaging System (Molecular Devices). Background fluorescence due to nonspecific binding by the secondary antibody was established with the use of cells that were incubated with BSA/PBS and without primary antibodies. […]

In assay [8] the test system is phospho-ERK. Nature of the assay: phospho-ERK (T202/Y204) immunofluorescence, high-content imaging in HEK293 cells. The assay is classed as cell-based, human. The conditions noted are these: for EGF-stimulated ERK phosphorylation: drug 90 min, hEGF during last 5 min. The method, then: as §1, §2, §3
For assay [9], the target named is T1, PPAR-gamma:SRC-1 (Homo sapiens, UniProt P37231).
T1 sequence (P37231 1-477 isoform P37231-2): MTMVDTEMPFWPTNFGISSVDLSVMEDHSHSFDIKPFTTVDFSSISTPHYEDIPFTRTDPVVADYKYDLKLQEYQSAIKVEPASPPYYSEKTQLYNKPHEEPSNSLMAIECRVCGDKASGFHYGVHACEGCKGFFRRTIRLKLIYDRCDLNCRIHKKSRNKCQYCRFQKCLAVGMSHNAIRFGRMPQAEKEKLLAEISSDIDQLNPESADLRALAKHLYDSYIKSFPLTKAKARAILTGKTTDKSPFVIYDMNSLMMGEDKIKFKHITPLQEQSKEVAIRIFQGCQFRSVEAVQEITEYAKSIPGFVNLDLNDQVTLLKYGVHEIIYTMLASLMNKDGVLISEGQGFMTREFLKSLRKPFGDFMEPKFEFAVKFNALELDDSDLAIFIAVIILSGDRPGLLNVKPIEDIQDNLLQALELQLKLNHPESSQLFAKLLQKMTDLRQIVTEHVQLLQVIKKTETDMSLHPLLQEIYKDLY
Nature of the assay: PPAR-gamma:SRC-1 PCA. The assay is classed as cell-based. The conditions noted are these: serum-starved HEK293; for effect on PPAR-gamma:SRC-1 PCA: drug 6.5 hours prior to rosiglitazone 1.5 hours, FIG. 24B, C.

Assay [10] relates to phospho-CREB. Briefly: phospho-CREB (Ser133) immunofluorescence, high-content imaging in HEK293 cells. Format: cell-based, human. The method, then: as §1
Details of the methods used are as follows. HEK293T cells were seeded in black-walled, poly-lysine coated 96-well plates (Greiner) at a density of 30,000/well. […]
as §3

Assay [11] has as its system CDKN1A(p21):Cdc2. Nature of the assay: Cdc2:p21 PCA. The following applies: statins.
For assay [12], the system named is ELK: MAPK1. Nature of the assay: Elk1:Mapk1 PCA. The following applies: 480 minutes; FIG. 17 bar 20.
Assay [13] deals with MAPK1:MKNK1. Briefly: Mknk1:Mapk1 PCA. The conditions noted are these: 480 minutes; bar 27.
In assay [14] the test system is Cofilin:Limk2. Briefly: Cofilin:Limk2 PCA. The conditions noted are these: drug treatment, HEK293.

Regarding `C=CCNC1=C2C[C@@H](C)C[C@H](OC)[C@H](O)[C@@H](C)/C=C(\C)[C@H](OC(N)=O)[C@@H](OC)/C=C\C=C(/C)C(=O)NC(=CC1=O)C2=O` [17-AAG, 17-(allylamino)-17-demethoxygeldanamycin], the “Akt:p27 complexes” value in [1] is given as “negatively regulated”. Also, the “Akt:Pdk1 complexes” value in assay [2] was “negatively regulated”.

In the case of `CCCC[C@@H](C=O)NC(=O)[C@H](CC(C)C)NC(=O)[C@H](CC(C)C)NC(C)=O` [ALLN] (Ac-Leu-Leu-[Nle]-aldehyde), the “cyclinD1:Cdk4 complexes” value in [3] is on record as “accumulation of this complex in the nucleus”.

Regarding `Cc1ccc(S(=O)(=O)/C=C/C#N)cc1` [BAY 11-7082], the “HRas:Raf1 complex” value in [4] is recorded as “inhibited”. Besides, the “nuclear Akt:p27 complexes” value in assay [1] (HEK293) is “strongly inhibited”. Further, the “total Akt:Pdk1 complexes” value in assay [2] (HEK293) was “not”.

Consider `CC(C)C[C@H](NC(=O)c1ccc(NCc2cnc[nH]2)cc1-c1cccc2ccccc12)C(=O)O` [GGTI-2133], for which the “effect on βArr2:β2AR assay following isoproterenol stimulation” value in [5] (FIG. 19A, 2 μM ISO 30 min) is reported as “no effect”.

For the molecule `CN(CCOc1ccc(C[C@H](Nc2ccccc2C(=O)c2ccccc2)C(=O)O)cc1)c1ccccn1` [GW1929], the “effect on Pin1/Jun PCA” value in [6] (PPARγ ligands, 480 minutes, FIG. 18) was “strong stimulation; also recorded: had an effect”.

In the case of `COc1cccc(-c2cc(=O)c3ccccc3o2)c1N` [PD98059], the “EGF-induced Hsp27 phosphorylation” value in [7] is given as “no effect”. Further, the “EGF-stimulated ERK phosphorylation” value in assay [8] was “significantly blocked”. Besides, in assay [9], the “effect on PPAR-gamma:SRC-1 PCA” value is “no appreciable effects”. Moreover, the “effect of EGF on phospho-CREB in presence of drug” value in assay [10] (20 micromolar PD98059 90 min, hEGF during last 5 min) is listed as “reduced”.

On to `COc1cc2ncnc(Nc3cccc(Br)c3)c2cc1OC` [PD 153035], for which the “effect on PPAR-gamma:SRC-1 PCA” value in assay [9] is “no appreciable effects”.

`CC(C)(C)n1nc(-c2ccc(Cl)cc2)c2c(N)ncnc21` [PP2]: the “increase of PPAR-gamma:SRC-1 complex” value in [9] (drug 10 micromolar 6.5 hours prior to rosiglitazone 1.5 hours, p<0.0001 vs DMSO) is recorded as 5 fold. Besides, the “effect on PPAR-gamma:SRC-1 PCA” value in [9] is “comparable to c-src siRNA”.

For the molecule `Nc1ncnc2c1cnn2-c1ccccc1` [PP3], the “effect on PPAR-gamma:SRC-1 PCA” value in [9] is on record as “did not mimic”.

`C[S+]([O-])c1ccc(-c2nc(-c3ccc(F)cc3)c(-c3ccncc3)[nH]2)cc1` (stereo not drawn) [SB203580, 4-(4-fluorophenyl)-2-(4-methylsulfinylphenyl)-5-(4-pyridyl)1H-imidazole]: in [7], the “EGF-induced Hsp27 phosphorylation” value was “blocked”. For the same molecule, in [8], the “EGF-stimulated ERK phosphorylation” value is “no effect”.

For the molecule `CC(C)n1c(/C=C/C(O)CC(O)CC(=O)O)c(-c2ccc(F)cc2)c2ccccc21` (stereo not drawn) [fluvastatin], in assay [6], the “effect on Pin1:Jun assay” value is “pronounced inhibitory activity; also recorded: inhibited”.

`CC(C)c1nc(N(C)S(C)(=O)=O)nc(-c2ccc(F)cc2)c1/C=C/[C@@H](O)C[C@@H](O)CC(=O)O` [rosuvastatin]: the “effect on Pin1:Jun assay” value in assay [6] was “little activity”. In [11], the “activity on CDKN1A(p21):Cdc2 assay” value was “activity opposite from the other statins”.

With “EGF: epidermal growth factor; hEGF from Roche”, the phospho-Hsp27 entry in assay [7] (100 ng/ml hEGF, 5 min) is given as “increased”. Moreover, the ERK/MAP kinase phosphorylation result in assay [8] (100 ng/ml hEGF, 5 min) is “highly induced”. Besides, in [10] (100 ng/ml hEGF, 5 min), the “formation of phospho-CREB” value is recorded as “induced”.

As to “TRAIL: protein cytokine, a TNF-alpha-family ligand”, the “ELK: MAPK1 assay” value in [12] is “strongly induced”. Further, the “MAPK1:MKNK1 assay” value in assay [13] is given as “strongly induced”. In addition, in [5] (480 minutes, FIG. 17 bars 3 & 4), the “activity on adrenergic GPCR assays” value is listed as “no activity”.

For the molecule indirubin-3′-monoxime, the “Akt:p27 complexes” value in assay [1] was “negatively regulated”. Further, in assay [14], the “Limk2:cofilin complexes” value is “almost completely eliminated”. The “Akt:Pdk1 complexes” value in [2] is “negatively regulated”.
